From PubChem BioAssay AID192 (DTP/NCI, 2004)
Values joined by “and” are separate entries in the source; they are usually repeats but may differ in a detail not shown here. Equal entries are not always repeated. Inconclusive results and toxic doses are left out.

System: BDF1 mice, B16 melanoma ip, median survival T/C
Test: NCI In Vivo Anticancer Drug Screen. Data for tumor model B16 Melanoma (intraperitoneal) in B6D2F1 (BDF1) mice
Settings: endpoint: median survival time, higher = longer survival
In short: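 Values are ratios of treated (T) to vehicle-control (C) measurements of survival or tumor size in tumor-bearing mice.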

[1] = dose: 50.0 mg/kg/injection, schedule: Q01DX009 (ip), vehicle: saline
[2] = dose: 100.0 mg/kg/injection, schedule: Q01DX009 (ip), vehicle: saline
[3] = dose: 200.0 mg/kg/injection, schedule: Q01DX009 (ip), vehicle: saline
[4] = dose: 100.0 mg/kg/injection, schedule: Q01DX009 (ip), vehicle: Klucel (hydroxypropylcellulose) (HPC)
[5] = dose: 200.0 mg/kg/injection, schedule: Q01DX009 (ip), vehicle: Klucel (hydroxypropylcellulose) (HPC)
[6] = dose: 6.25 mg/kg/injection, schedule: Q01DX009 (ip), vehicle: Klucel (hydroxypropylcellulose) (HPC)
[7] = dose: 12.5 mg/kg/injection, schedule: Q01DX009 (ip), vehicle: Klucel (hydroxypropylcellulose) (HPC)
[8] = dose: 100.0 mg/kg/injection, schedule: Q04DX003 (ip), vehicle: Klucel (hydroxypropylcellulose) (HPC)
[9] = dose: 400.0 mg/kg/injection, schedule: Q01DX009 (ip), vehicle: Klucel (hydroxypropylcellulose) (HPC)
[10] = dose: 25.0 mg/kg/injection, schedule: Q01DX009 (ip), vehicle: saline with Tween-80
[11] = dose: 200.0 mg/kg/injection, schedule: Q01DX009 (ip), vehicle: saline with Tween-80
[12] = dose: 0.25 mg/kg/injection, schedule: Q01DX009 (ip), vehicle: saline
[13] = dose: 0.5 mg/kg/injection, schedule: Q01DX009 (ip), vehicle: saline
[14] = dose: 1.0 mg/kg/injection, schedule: Q01DX009 (ip), vehicle: saline
[15] = dose: 100.0 mg/kg/injection, schedule: Q01DX009 (ip), vehicle: saline with Tween-80
[16] = dose: 100.0 mg/kg/injection, schedule: Q04DX003 (ip), vehicle: saline with Tween-80
[17] = dose: 200.0 mg/kg/injection, schedule: Q04DX003 (ip), vehicle: saline with Tween-80

## O=C1Nc2ccc(Cl)cc2C(c2ccccc2)=NC1O (configuration not stated)
dose: 6.25 mg/kg/injection, schedule: Q01DX009 (ip), vehicle: saline
  T/C: 116 % of control
[1]
  T/C: 95 % of control
[2]
  T/C: 95 % of control
[3]
  T/C: 89 % of control
dose: 400.0 mg/kg/injection, schedule: Q01DX009 (ip), vehicle: saline
  T/C: 89 % of control

## COc1ccc(-c2c(N)nc(=S)[nH]c2C(=O)O)cc1
dose: 50.0 mg/kg/injection, schedule: Q01DX009 (ip), vehicle: Klucel (hydroxypropylcellulose) (HPC)
  T/C: 94 % of control
[4]
  T/C: 105 % of control
[5]
  T/C: 94 % of control

## CN(N)P(=S)(c1ccccc1)N(C)N
[6]
  T/C: 106 % of control
[7]
  T/C: 103 % of control

## CCc1ccccc1NC(=O)NC(C)C
[8]
  T/C: 100 % of control
dose: 200.0 mg/kg/injection, schedule: Q04DX003 (ip), vehicle: Klucel (hydroxypropylcellulose) (HPC)
  T/C: 110 % of control
dose: 400.0 mg/kg/injection, schedule: Q04DX003 (ip), vehicle: Klucel (hydroxypropylcellulose) (HPC)
  T/C: 100 % of control

## C=CCc1ccccc1C
[4]
  T/C: 104 % of control
[5]
  T/C: 105 % of control
[9]
  T/C: 90 % of control

## O=C1C(=O)c2ccccc2C(O)=C1CCCc1ccc(C2CCCCC2)cc1
[10]
  T/C: 104 % of control
[11]
  T/C: 88 % of control

## CCOc1cc[n+]([O-])cc1
[1]
  T/C: 103 % of control
[2]
  T/C: 104 % of control
[3]
  T/C: 102 % of control

## COc1cc([C@@H]2c3cc4c(c(O)c3C[C@H]3COC(=O)[C@@H]32)OCO4)cc(OC)c1O
dose: 0.12 mg/kg/injection, schedule: Q01DX009 (ip), vehicle: saline
  T/C: 97 % of control
dose: 0.12 mg/kg/injection, schedule: Q01DX009 (ip), vehicle: suspension in saline
  T/C: 100 % of control
[12]
  T/C: 97 % of control
dose: 0.25 mg/kg/injection, schedule: Q01DX009 (ip), vehicle: suspension in saline
  T/C: 96 % of control
[13]
  T/C: 107 % of control
dose: 0.5 mg/kg/injection, schedule: Q01DX009 (ip), vehicle: suspension in saline
  T/C: 105 % of control
[14]
  T/C: 95 % of control

## CCCCN(CCCC)CC(O)c1ccnc2cc3c(cc12)OCO3 (configuration not stated)
dose: 25.0 mg/kg/injection, schedule: Q04DX003 (ip), vehicle: Klucel (hydroxypropylcellulose) (HPC)
  T/C: 94 % of control
dose: 50.0 mg/kg/injection, schedule: Q04DX003 (ip), vehicle: Klucel (hydroxypropylcellulose) (HPC)
  T/C: 89 % of control
[8]
  T/C: 89 % of control

## CC1c2cccc(Cl)c2C(=O)c2c(Cl)cccc21
[4]
  T/C: 102 % of control
[5]
  T/C: 100 % of control
[9]
  T/C: 102 % of control

## C#CC1(OCC(CCl)OC(N)=O)CCCCC1 (configuration not stated)
[10]
  T/C: 87 % of control
[15]
  T/C: 104 % of control

## COc1ccc(NC2=C(C)C(=O)C3=C(C2=O)[C@H](COC(N)=O)[C@]2(OC)[C@@H]4N[C@@H]4CN32)cc1OC
dose: 3.0 mg/kg/injection, schedule: Q04DX003 (ip), vehicle: water
  T/C: 223 % of control
dose: 6.0 mg/kg/injection, schedule: Q04DX003 (ip), vehicle: water
  T/C: 312 % of control

## CCCCCCC(O)CCCC (configuration not stated)
dose: 100.0 mg/kg/injection, schedule: Q01DX009 (ip), vehicle: other
  T/C: 103 % of control
dose: 200.0 mg/kg/injection, schedule: Q01DX009 (ip), vehicle: other
  T/C: 90 % of control

## COC(=O)CCC(=O)N1CCOCC1
[15]
  T/C: 95 % of control
[16]
  T/C: 100 % of control
[11]
  T/C: 93 % of control
[17]
  T/C: 102 % of control
dose: 400.0 mg/kg/injection, schedule: Q01DX009 (ip), vehicle: saline with Tween-80
  T/C: 97 % of control
dose: 400.0 mg/kg/injection, schedule: Q04DX003 (ip), vehicle: saline with Tween-80
  T/C: 102 % of control

## CC(=O)OC12CC[N+]3(C)CCCCC3C1=Nc1ccccc12 (configuration not stated)
[7]
  T/C: 109 % of control
dose: 25.0 mg/kg/injection, schedule: Q01DX009 (ip), vehicle: Klucel (hydroxypropylcellulose) (HPC)
  T/C: 104 % of control

## Clc1ccc2c(c1)/C(=C/c1cccnc1)c1cc(Cl)cc(Cl)c1-2
dose: 50.0 mg/kg/injection, schedule: Q01DX009 (ip), vehicle: saline with Tween-80
  T/C: 86 % of control

## COc1cccc2c1C(=O)c1c(O)c3c(c(O)c1C2=O)C[C@@](O)(C(=O)COC(=O)c1cccnc1)C[C@@H]3OC1CC(N)C(O)C(C)O1 (some centres not stated)
dose: 0.19 mg/kg/injection, schedule: Q01DX001 (ip), vehicle: water
  T/C: 92 % of control
dose: 0.38 mg/kg/injection, schedule: Q01DX001 (ip), vehicle: water
  T/C: 101 % of control
dose: 0.75 mg/kg/injection, schedule: Q01DX001 (ip), vehicle: water
  T/C: 108 % of control
dose: 3.0 mg/kg/injection, schedule: Q01DX001 (ip), vehicle: water
  T/C: 113 % of control and 239 % of control and 249 % of control
dose: 6.0 mg/kg/injection, schedule: Q01DX001 (ip), vehicle: water
  T/C: 103 % of control and 250 % of control and 255 % of control
dose: 12.0 mg/kg/injection, schedule: Q01DX001 (ip), vehicle: water
  T/C: 251 % of control and 323 % of control
dose: 24.0 mg/kg/injection, schedule: Q01DX001 (ip), vehicle: water
  T/C: 325 % of control

## CC(C)C(O)(C(=O)OCC1=CC[N+]2(C)CCC(O)C12)C(C)O (configuration not stated)
dose: 12.5 mg/kg/injection, schedule: Q01DX009 (ip), vehicle: water
  T/C: 105 % of control
dose: 25.0 mg/kg/injection, schedule: Q01DX009 (ip), vehicle: water
  T/C: 107 % of control
dose: 50.0 mg/kg/injection, schedule: Q01DX009 (ip), vehicle: water
  T/C: 113 % of control
dose: 100.0 mg/kg/injection, schedule: Q01DX009 (ip), vehicle: water
  T/C: 109 % of control
dose: 200.0 mg/kg/injection, schedule: Q01DX009 (ip), vehicle: water
  T/C: 108 % of control

## Cc1c2ccccc2c(C)c2c1ccc1ccccc12
dose: 2.0 mg/kg/injection, schedule: Q01DX009 (ip), vehicle: saline with Tween-80
  T/C: 100 % of control
dose: 4.0 mg/kg/injection, schedule: Q01DX009 (ip), vehicle: saline with Tween-80
  T/C: 108 % of control
dose: 16.0 mg/kg/injection, schedule: Q01DX009 (ip), vehicle: saline with Tween-80
  T/C: 108 % of control

## O=C1NC(=O)C([N+](=O)[O-])=C(O)C1=O
dose: 75.0 mg/kg/injection, schedule: Q04DX003 (ip), vehicle: other
  T/C: 105 % of control
dose: 150.0 mg/kg/injection, schedule: Q04DX003 (ip), vehicle: other
  T/C: 95 % of control

## CN1C(=O)CCS(=O)(=O)C1c1ccc(Cl)cc1 (configuration not stated)
dose: 0.13 mg/kg/injection, schedule: Q01DX009 (ip), vehicle: saline
  T/C: 109 % of control
[12]
  T/C: 101 % of control
dose: 0.38 mg/kg/injection, schedule: Q01DX009 (ip), vehicle: saline
  T/C: 95 % of control
dose: 0.39 mg/kg/injection, schedule: Q01DX009 (ip), vehicle: Klucel (hydroxypropylcellulose) (HPC)
  T/C: 100 % of control
[13]
  T/C: 111 % of control
dose: 0.75 mg/kg/injection, schedule: Q01DX009 (ip), vehicle: saline
  T/C: 98 % of control
[14]
  T/C: 115 % of control
dose: 1.5 mg/kg/injection, schedule: Q01DX009 (ip), vehicle: saline
  T/C: 101 % of control
dose: 1.56 mg/kg/injection, schedule: Q01DX009 (ip), vehicle: Klucel (hydroxypropylcellulose) (HPC)
  T/C: 109 % of control
dose: 2.0 mg/kg/injection, schedule: Q01DX009 (ip), vehicle: saline
  T/C: 104 % of control
dose: 3.0 mg/kg/injection, schedule: Q01DX009 (ip), vehicle: saline
  T/C: 104 % of control
dose: 3.12 mg/kg/injection, schedule: Q01DX009 (ip), vehicle: Klucel (hydroxypropylcellulose) (HPC)
  T/C: 100 % of control
[6]
  T/C: 102 % of control

## CCCCCCCC(N)=O
[15]
  T/C: 100 % of control
[11]
  T/C: 106 % of control

## CC(C)c1ccc(NC(=O)Nc2cc(Cl)ccc2Cl)cc1
dose: 4.0 mg/kg/injection, schedule: Q01DX009 (ip), vehicle: gum acacia
  T/C: 93 % of control
dose: 8.0 mg/kg/injection, schedule: Q01DX009 (ip), vehicle: gum acacia
  T/C: 90 % of control
dose: 16.0 mg/kg/injection, schedule: Q01DX009 (ip), vehicle: gum acacia
  T/C: 93 % of control

## O/N=C\c1ccc(/C=N/O)cc1
dose: 50.0 mg/kg/injection, schedule: Q04DX003 (ip), vehicle: saline with Tween-80
  T/C: 119 % of control
[16]
  T/C: 119 % of control
[17]
  T/C: 111 % of control
